# Species: Rattus norvegicus
# Assay: Open TG-GATES - Regimen: Single
# Format: toxicity, organism-based, Sprague-Dawley
# Parameters: regimen Single, gender Male, age 6 weeks
# Conditions: in vivo, po, 0 mg/kg, route gavage, dose level Control; for Bas / Eos / Fbg / Hb / Ht / Lym / MCHC / MCV / Mono / PT / Plat / RBC / WBC / APTT: tissue Blood; for KIDNEY_L / KIDNEY_R / KIDNEY_TOTAL: tissue Kidney; for LIVER: tissue Liver; for ALP / ALT / AST / CRE / Ca / Cl / DBIL / GLC / K / LDH / Na / PL / RALB / TBIL / TC / TG / TP / gamma-GTP: tissue Plasma
smiles,measurement,setting,value
COc1ccc([C@@H]2Sc3ccccc3N(CCN(C)C)C(=O)[C@@H]2OC(C)=O)cc1 [DILTIAZEM],TERMINAL_BW,3 h,181.4 g
same,Bas,3 h,0%
same,Eos,3 h,0.8%
same,Fbg,3 h,269 mg/dL
same,Hb,3 h,13 g/dL
same,Ht,3 h,40.2%
same,Lym,3 h,76.8%
same,MCHC,3 h,32.3%
same,MCV,3 h,67 fL
same,Mono,3 h,3.4%
same,PT,3 h,14.3 s
same,Plat,3 h,127.1 x10_4/uL
same,RBC,3 h,600.6 x10_4/ul
same,WBC,3 h,84.6 x10_2/uL
same,KIDNEY_L,3 h,0.9 g
same,KIDNEY_R,3 h,0.9 g
same,KIDNEY_TOTAL,3 h,1.8 g
same,LIVER,3 h,8.3 g
same,ALP,3 h,1273 IU/L
same,ALT,3 h,43.2 IU/L
same,AST,3 h,75.4 IU/L
same,CRE,3 h,0.2 mg/dL
same,Ca,3 h,10.9 mg/dL
same,Cl,3 h,106.8 meq/L
same,DBIL,3 h,0.01 mg/dL
same,GLC,3 h,178.4 mg/dL
same,K,3 h,4.4 meq/L
same,LDH,3 h,79.2 IU/L
same,Na,3 h,142 meq/L
same,PL,3 h,141 mg/dL
same,RALB,3 h,2.5 g/dL
same,TBIL,3 h,0.04 mg/dL
same,TC,3 h,83.2 mg/dL
same,TG,3 h,38.4 mg/dL
same,TP,3 h,5.1 g/dL
same,gamma-GTP,3 h,1 IU/L
same,TERMINAL_BW,6 h,181.1 g
same,APTT,6 h,18.2 s
same,Bas,6 h,0%
same,Eos,6 h,0.4%
same,Fbg,6 h,280 mg/dL
same,Hb,6 h,13.3 g/dL
same,Ht,6 h,40.7%
same,Lym,6 h,78%
same,MCHC,6 h,32.6%
same,MCV,6 h,66.8 fL
same,Mono,6 h,2.6%
same,PT,6 h,14.5 s
same,Plat,6 h,116.6 x10_4/uL
same,RBC,6 h,609.6 x10_4/ul
same,WBC,6 h,77 x10_2/uL
same,KIDNEY_L,6 h,0.8 g
same,KIDNEY_R,6 h,0.8 g
same,KIDNEY_TOTAL,6 h,1.7 g
same,LIVER,6 h,7.8 g
same,ALP,6 h,1331.4 IU/L
same,ALT,6 h,40.2 IU/L
same,AST,6 h,69.4 IU/L
same,CRE,6 h,0.2 mg/dL
same,Ca,6 h,10.8 mg/dL
same,Cl,6 h,106.6 meq/L
same,DBIL,6 h,0.006 mg/dL
same,GLC,6 h,171.6 mg/dL
same,K,6 h,4.1 meq/L
same,LDH,6 h,61.4 IU/L
same,Na,6 h,143 meq/L
same,PL,6 h,129.8 mg/dL
same,RALB,6 h,2.5 g/dL
same,TBIL,6 h,0.038 mg/dL
same,TC,6 h,71.8 mg/dL
same,TG,6 h,43.2 mg/dL
same,TP,6 h,5.1 g/dL
same,gamma-GTP,6 h,1 IU/L
same,TERMINAL_BW,9 h,180.5 g
same,APTT,9 h,17 s
same,Bas,9 h,0%
same,Eos,9 h,0.6%
same,Fbg,9 h,313 mg/dL
same,Hb,9 h,13.3 g/dL
same,Ht,9 h,41.1%
same,Lym,9 h,75.4%
same,MCHC,9 h,32.3%
same,MCV,9 h,66.5 fL
same,Mono,9 h,2.4%
same,PT,9 h,14.5 s
same,Plat,9 h,126.8 x10_4/uL
same,RBC,9 h,619.2 x10_4/ul
same,WBC,9 h,78.7 x10_2/uL
same,KIDNEY_L,9 h,0.8 g
same,KIDNEY_R,9 h,0.8 g
same,KIDNEY_TOTAL,9 h,1.7 g
same,LIVER,9 h,6.9 g
same,ALP,9 h,1820.2 IU/L
same,ALT,9 h,43 IU/L
same,AST,9 h,75.4 IU/L
same,CRE,9 h,0.2 mg/dL
same,Ca,9 h,10.6 mg/dL
same,Cl,9 h,107 meq/L
same,DBIL,9 h,0.01 mg/dL
same,GLC,9 h,178 mg/dL
same,K,9 h,4.1 meq/L
same,LDH,9 h,71.8 IU/L
same,Na,9 h,142.2 meq/L
same,PL,9 h,119.4 mg/dL
same,RALB,9 h,2.5 g/dL
same,TBIL,9 h,0.038 mg/dL
same,TC,9 h,67.2 mg/dL
same,TG,9 h,28.4 mg/dL
same,TP,9 h,5.2 g/dL
same,gamma-GTP,9 h,1.8 IU/L
same,TERMINAL_BW,24 h,198.1 g
same,Bas,24 h,0%
same,Eos,24 h,1%
same,Fbg,24 h,259.8 mg/dL
same,Hb,24 h,13 g/dL
same,Ht,24 h,39.6%
same,Lym,24 h,74.6%
same,MCHC,24 h,32.9%
same,MCV,24 h,64.9 fL
same,Mono,24 h,3.4%
same,PT,24 h,14.8 s
same,Plat,24 h,119.2 x10_4/uL
same,RBC,24 h,610.2 x10_4/ul
same,WBC,24 h,90.7 x10_2/uL
same,KIDNEY_L,24 h,0.9 g
same,KIDNEY_R,24 h,0.9 g
same,KIDNEY_TOTAL,24 h,1.8 g
same,LIVER,24 h,8.9 g
same,ALT,24 h,48 IU/L
same,AST,24 h,77 IU/L
same,CRE,24 h,0.2 mg/dL
same,Ca,24 h,11.1 mg/dL
same,Cl,24 h,107 meq/L
same,DBIL,24 h,0.014 mg/dL
same,GLC,24 h,187.4 mg/dL
same,K,24 h,4.2 meq/L
same,LDH,24 h,88.4 IU/L
same,Na,24 h,143.8 meq/L
same,PL,24 h,148.6 mg/dL
same,RALB,24 h,2.6 g/dL
same,TBIL,24 h,0.03 mg/dL
same,TC,24 h,76.6 mg/dL

# — ChEMBL document CHEMBL3885861, “Open TG-GATES”
